In patent US11524966B1 (Valo Early Discovery, Inc., priority 2017, dated 2022):

target: T1, USP28 (USP28-5(1-1077)-TEV-6*His; LifeSensors) (Homo sapiens, UniProt Q96RU2); assay: Ubiquitin-Rhodamine 110 Assay for USP28 Activity, Example A-1(b); assay type: biochemical; conditions: Ubiquitin-Rhodamine 110 assay, Example A-1(b)
T1 construct: construct USP28 (USP28-5(1-1077)-TEV-6*His; LifeSensors); TEV cleavage site (C); 6xHis (C); purchased LifeSensors
T1 sequence (Q96RU2 1-1077): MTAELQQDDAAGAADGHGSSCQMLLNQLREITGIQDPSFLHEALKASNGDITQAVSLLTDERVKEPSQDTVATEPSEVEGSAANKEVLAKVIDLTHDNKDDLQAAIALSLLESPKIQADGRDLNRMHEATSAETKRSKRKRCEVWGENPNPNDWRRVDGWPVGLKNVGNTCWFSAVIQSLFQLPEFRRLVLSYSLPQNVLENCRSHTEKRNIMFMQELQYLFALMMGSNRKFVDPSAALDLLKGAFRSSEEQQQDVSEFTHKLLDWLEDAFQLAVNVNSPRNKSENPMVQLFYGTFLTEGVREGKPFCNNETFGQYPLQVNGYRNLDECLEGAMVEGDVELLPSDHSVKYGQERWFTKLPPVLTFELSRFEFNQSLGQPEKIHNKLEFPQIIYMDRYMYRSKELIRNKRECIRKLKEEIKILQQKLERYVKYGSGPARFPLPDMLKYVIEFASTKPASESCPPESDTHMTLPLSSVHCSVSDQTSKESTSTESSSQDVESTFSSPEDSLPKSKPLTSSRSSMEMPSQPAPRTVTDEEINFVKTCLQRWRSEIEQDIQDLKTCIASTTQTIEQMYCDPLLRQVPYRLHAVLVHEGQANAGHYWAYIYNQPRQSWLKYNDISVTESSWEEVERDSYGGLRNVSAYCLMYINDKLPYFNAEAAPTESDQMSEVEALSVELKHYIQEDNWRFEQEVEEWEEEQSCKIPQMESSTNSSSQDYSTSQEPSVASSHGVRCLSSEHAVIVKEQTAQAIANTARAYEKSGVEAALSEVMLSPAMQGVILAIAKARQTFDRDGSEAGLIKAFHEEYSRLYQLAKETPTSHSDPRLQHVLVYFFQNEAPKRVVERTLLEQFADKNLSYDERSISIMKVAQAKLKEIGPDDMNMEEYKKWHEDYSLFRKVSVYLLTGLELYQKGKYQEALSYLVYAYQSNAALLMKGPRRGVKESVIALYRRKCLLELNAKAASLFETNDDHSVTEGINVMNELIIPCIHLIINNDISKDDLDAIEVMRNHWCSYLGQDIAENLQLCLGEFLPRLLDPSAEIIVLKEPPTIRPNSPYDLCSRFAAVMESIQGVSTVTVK
In short: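 Single-point screening used 10 μM compound with 90 min room-temperature incubation; follow-up dose-responses (25 μM top, 3-fold) used 75 pM USP28 1-1077 construct, 30 min compound preincubation, 25 nM Ub-Rh110, 20 min reaction, citric acid quench. Rh110 fluorescence normalised to no-enzyme and DMSO controls; IC50 from 4-parameter logistic fit.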

Q: With `Cc1ccc2c(N)c(C(=O)N[C@H]3COc4cc(N5CC[C@H](C(=O)O)C5)ccc4C3)sc2n1` [Example 6-3, (S)-1-((R)-3-(3-amino-6-methylthieno[2,3-b]pyridine-2-carboxamido)chroman-7-yl)pyrrolidine-3-carboxylic acid] as the molecule, how does the “USP28 A-1(b) IC50 range” value read?
A: The value was “++ (0.2-2 μM)”.

Q: Which “USP28 A-1(b) IC50 range” value does the source give for `Cc1ccc2c(N)c(C(=O)N[C@H]3COc4cc(N5CCC(O)CC5)ccc4C3)sc2n1` [Example 7-1, (R)-3-amino-N-(7-(4-hydroxypiperidin-1-yl)chroman-3-yl)-6-methylthieno[2,3-b]pyridine-2-carboxamide] here?
A: The value was “+++ (0.05-0.2 μM)”.

Q: Which “USP28 A-1(b) IC50 range” value does the source give for `Cc1cnc2c(N)c(C(=O)N[C@H]3CCc4cc(N5CCCNCC5)ccc4C3)sc2n1` [Example 455, (S)-N-(6-(1,4-diazepan-1-yl)-1,2,3,4-tetrahydronaphthalen-2-yl)-7-amino-3-methylthieno[2,3-b]pyrazine-6-carboxamide] here?
A: The value was “++ (0.2-2 μM)”.

Q: How did the “USP28 A-1(b) IC50 range” value turn out when `O=C(N[C@H]1COc2cc(N3CCNCC3)ccc2C1)c1cnn2cc(Cl)ccc12` [Example 462, (R)-6-chloro-N-(7-(piperazin-1-yl)chroman-3-yl)pyrazolo[1,5-a]pyridine-3-carboxamide] was run?
A: Its value is “+ (>2 μM)”.

Q: Which “USP28 A-1(b) IC50 range” value does the source give for `Cc1ccc2c(N)c(C(=O)N[C@H]3COc4cc(N5C[C@@H](N)[C@H](F)C5)ccc4C3)sc2n1` [Example 3-8, 3-amino-N-((R)-7-((3R,4R)-3-amino-4-fluoropyrrolidin-1-yl)chroman-3-yl)-6-methylthieno[2,3-b]pyridine-2-carboxamide] here?
A: The value was “++ (0.2-2 μM)”.

Q: For `Cc1ccc2c(N)c(C(=O)N[C@H]3COc4cc(N5CCN[C@@H](C(F)(F)F)C5)ccc4C3)sc2n1` [Example 3-11, 3-amino-6-methyl-N-((R)-7-((R)-3-(trifluoromethyl)piperazin-1-yl)chroman-3-yl)thieno[2,3-b]pyridine-2-carboxamide], which “USP28 A-1(b) IC50 range” value is on record?
A: Its value is “++ (0.2-2 μM)”.

Q: For `Cc1ccc2c(N)c(C(=O)N[C@@H]3CCc4cc(N5CC6CNCC(C5)O6)ccc4C3)sc2n1` [Example 451, N-((2R)-6-(9-oxa-3,7-diazabicyclo[3.3.1]nonan-3-yl)-1,2,3,4-tetrahydronaphthalen-2-yl)-3-amino-6-methylthieno[2,3-b]pyridine-2-carboxamide], which “USP28 A-1(b) IC50 range” value is on record?
A: Its value is “++ (0.2-2 μM)”.

Q: How did the “USP28 A-1(b) IC50 range” value turn out when `Cc1ccc2c(N)c(C(=O)N[C@H]3COc4cc(N5CC[C@]6(CCCNC6)C5)ccc4C3)sc2n1` [Example 3-13, N-((R)-7-((S)-2,7-diazaspiro[4.5]decan-2-yl)chroman-3-yl)-3-amino-6-methylthieno[2,3-b]pyridine-2-carboxamide] was run?
A: Its value is “+++ (0.05-0.2 μM)”.

Q: `O=C(N[C@H]1COc2cc(N3CCNCC3)ccc2C1)c1ccc(NCc2cccc(Cl)c2)nc1` [Example 467, (R)-6-((3-chlorobenzyl)amino)-N-(7-(piperazin-1-yl)chroman-3-yl)nicotinamide] was tested. Which “USP28 A-1(b) IC50 range” value did it give?
A: Its value is “++ (0.2-2 μM)”.

Q: Which “USP28 A-1(b) IC50 range” value does the source give for `Cc1ccc2c(N)c(C(=O)N[C@H]3COc4cc(N5CC[C@@]6(CCCNC6)C5)ccc4C3)sc2n1` [Example 3-14, N-((R)-7-((R)-2,7-diazaspiro[4.5]decan-2-yl)chroman-3-yl)-3-amino-6-methylthieno[2,3-b]pyridine-2-carboxamide] here?
A: The value was “+++ (0.05-0.2 μM)”.

Q: Which “USP28 A-1(b) IC50 range” value does the source give for `O=C(N[C@H]1COc2cc(N3CCNCC3)ccc2C1)c1ccc(NCc2ccc3c(c2)CCO3)nc1` [Example 472, (R)-6-(((2,3-dihydrobenzofuran-5-yl)methyl)amino)-N-(7-(piperazin-1-yl)chroman-3-yl)nicotinamide] here?
A: Its value is “++ (0.2-2 μM)”.
